Laboratory results published in patent publication US10239843B2 (CANCER RESEARCH TECHNOLOGY LIMITED, priority 2014, dated 2019).
Read-outs that look alike come from different tables or passages of the source.

What was measured:
[1] = system: PARG in HeLa cell line; test: PARG cell assay (PAR chain immunofluorescence after MMS); assay type: cell-based; settings: HeLa cells
Protocol: This method is based on the detection of endogenous levels of poly (ADP) ribose chains present in the nucleus of HeLa cell line using indirect immunofluorescence. MMS stimulation increases PAR chains for up to 25 mins. After that point, PARG is active and breaks down the PAR chains, until by one hour after stimulation no PAR chains are detectable. Inhibition of PARG maintains PAR chains.
Briefly, following compound treatment and treatment with the DNA damaging agent methylmethanesulfonate (MMS), the cell monolayer is fixed, then permeabilised and incubated with a mouse monoclonal antibody raised against multimers of poly(ADP) ribose.
At the end of the 1 h dosing period, MMS was added to duplicates at a final concentration of 50 μg/mL, for a further hour.
Media was tipped off and the cells fixed with 50 μL ice-cold 95% MetOH/PBS for 15 mins at −20° C. Following a PBS wash, 50 μL PBS/0.1% Triton was added to the cells for 20 mins. Following another PBS wash, anti-PAR antibody (Calbiochem AM80) was diluted 1:4000 in a buffer (PBS+0.5% FBS+0.05% Tween20) and added to the cells and incubated overnight at 4° C.
Cells were washed three times with PBS and the plate sealed with a light-proof seal.

[2] = biological target: Human Full Length PARG (Homo sapiens (Human), UniProt Q86W56); test: PARG enzyme assay (TR-FRET); assay type: biochemical
Chain of Human Full Length PARG (Q86W56 whole entry): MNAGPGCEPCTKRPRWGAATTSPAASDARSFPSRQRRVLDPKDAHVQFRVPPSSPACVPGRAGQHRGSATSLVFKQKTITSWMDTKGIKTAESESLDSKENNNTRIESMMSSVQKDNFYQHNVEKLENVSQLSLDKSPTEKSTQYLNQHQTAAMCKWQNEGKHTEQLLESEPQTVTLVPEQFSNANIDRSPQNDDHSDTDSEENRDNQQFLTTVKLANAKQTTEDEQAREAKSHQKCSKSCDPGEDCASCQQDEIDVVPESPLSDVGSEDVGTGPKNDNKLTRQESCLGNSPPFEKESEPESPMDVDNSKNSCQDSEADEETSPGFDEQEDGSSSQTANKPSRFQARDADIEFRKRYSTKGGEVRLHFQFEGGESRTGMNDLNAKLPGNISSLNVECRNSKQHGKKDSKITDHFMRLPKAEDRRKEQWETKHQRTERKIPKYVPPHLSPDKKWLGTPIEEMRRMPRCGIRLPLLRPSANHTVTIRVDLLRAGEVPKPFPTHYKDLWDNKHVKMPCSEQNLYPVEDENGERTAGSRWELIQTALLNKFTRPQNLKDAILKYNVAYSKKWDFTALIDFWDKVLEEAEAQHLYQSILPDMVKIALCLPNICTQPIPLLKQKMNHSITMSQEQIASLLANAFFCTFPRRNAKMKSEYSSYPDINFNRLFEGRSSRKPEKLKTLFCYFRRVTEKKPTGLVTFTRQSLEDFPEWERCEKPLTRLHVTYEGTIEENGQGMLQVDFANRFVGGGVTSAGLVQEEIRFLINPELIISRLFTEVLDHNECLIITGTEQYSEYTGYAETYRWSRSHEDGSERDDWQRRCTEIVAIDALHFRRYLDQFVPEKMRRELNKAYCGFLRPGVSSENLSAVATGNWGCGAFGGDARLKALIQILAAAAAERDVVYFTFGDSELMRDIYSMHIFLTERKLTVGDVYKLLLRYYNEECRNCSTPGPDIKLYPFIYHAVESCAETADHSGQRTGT

[3] = Homo sapiens, MMS treatment, read-out: PARG Cell IC50
[4] = Homo sapiens, MMS 50 μg/mL, read-out: PARG Cell IC50 Geomean
[5] = read-out: PARG Biochem IC50 Geomean

Compound	IC50 [1, 3] [nM]	IC50 [1, 4] [nM]	IC50 [2, 5] [nM]	other results
Cc1cc(Cn2c(=O)c3cc(S(=O)(=O)NC4(C)CC4)ccc3n(CCF)c2=O)on1 [Example 411, 1-(2-Fluoroethyl)-N-(1-methylcyclopropyl)-3-[(3-methylisoxazol-5-yl)methyl]-2,4-dioxo-quinazoline-6-sulfonamide]	104	–	–	IC50 ([2]; read-out: PARG Biochem IC50): 409 nM
Cc1oncc1Cn1c(=O)c2cc(S(=O)(=O)NC3(C)CC3)ccc2n(C)c1=O [Example 506, 1-Methyl-N-(1-methylcyclopropyl)-3-[(5-methylisoxazol-4-yl)methyl]-2,4-dioxo-quinazoline-6-sulfonamide]	539	–	–	IC50 ([2]; read-out: PARG Biochem IC50): 770 nM
Cc1nnc(Cn2c(=O)c3cc(S(=O)(=O)NC4(CF)CC4)ccc3n(C)c2=O)s1 [Example 515, N-[1-(Fluoromethyl)cyclopropyl]-1-methyl-3-[(5-methyl-1,3,4-thiadiazol-2-yl)methyl]-2,4-dioxo-quinazoline-6-sulfonamide]	698	–	–	IC50 ([2]; read-out: PARG Biochem IC50): 579 nM
Cc1noc(C)c1Cn1c(=O)c2cc(S(=O)(=O)NC3(C)CC3)ccc2n(C)c1=O [Example 115]	–	386	616	–
Cc1nc(Cn2c(=O)n(Cc3cnn(C)c3)c(=O)c3cc(S(=O)(=O)NC4(CF)CC4)ccc32)c[nH]1 [Example 568, N-[1-(Fluoromethyl)cyclopropyl]-1-[(2-methyl-1H-imidazol-4-yl)methyl]-3-[(1-methylpyrazol-4-yl)methyl]-2,4-dioxo-quinazoline-6-sulfonamide]	5290	–	–	IC50 ([2]; read-out: PARG Biochem IC50): 100 nM
CC1CC1Cn1c(=O)n(C)c(=O)c2cc(S(=O)(=O)NC3(C)CC3)ccc21 (stereo not drawn) [Example 35]	–	409	246	–
CC1(NS(=O)(=O)c2ccc3c(c2)c(=O)n(CC#N)c(=O)n3Cc2ccc(F)cc2)CC1 [Example 186]	–	307	441	–
Cc1cc(Cn2c(=O)c3cc(S(=O)(=O)NC4(C)CC4)ccc3n(CC3CCCCC3)c2=O)on1 [Example 290]	–	260	497	–
CCC#CCn1c(=O)n(C)c(=O)c2cc(S(=O)(=O)NC3(C)CC3)ccc21 [Example 137]	–	608	–	–
Cc1cc(Cn2c(=O)c3cc(S(=O)(=O)NC4(CF)CC4)ccc3n(Cc3cc(C)no3)c2=O)on1 [Example 521, N-[1-(Fluoromethyl)cyclopropyl]-1,3-bis[(3-methylisoxazol-5-yl)methyl]-2,4-dioxo-quinazoline-6-sulfonamide]	92	–	–	IC50 ([2]; read-out: PARG Biochem IC50): 54 nM
Cc1cc(Cn2c(=O)c3cc(S(=O)(=O)NC4(C)CC4)ccc3n(CCCO)c2=O)on1 [Example 407, 1-(3-Hydroxypropyl)-N-(1-methylcyclopropyl)-3-[(3-methylisoxazol-5-yl)methyl]-2,4-dioxo-quinazoline-6-sulfonamide]	625	–	–	IC50 ([2]; read-out: PARG Biochem IC50): 394 nM
Cn1c(=O)n(Cc2cnc(NC(=O)OC(C)(C)C)s2)c(=O)c2cc(S(=O)(=O)NC3(C)CC3)ccc21 [Example 214]	–	–	411	IC50 ([1]; MMS 50 μg/mL, read-out: PARG Cell IC50 Geomean): 3470 nM
COCCn1c(=O)n(Cc2cnn(C)c2)c(=O)c2cc(S(=O)(=O)NC3(C)CC3)ccc21 [Example 270]	–	102	128	–
Cn1cc(Cn2c(=O)c3cc(S(=O)(=O)NC4(C)CC4)ccc3n(CC3CCC3)c2=O)cn1 [Example 281]	–	44	76	–
Cc1cc(Cn2nc(CC3CC3)c3ccc(S(=O)(=O)NC4(C)CC4)cc3c2=O)on1 [Example 318]	–	319	352	–
Cc1ncc(Cn2c(=O)c3cc(S(=O)(=O)NC4(C)CC4)ccc3n(CC3CC(C)(C)C3)c2=O)s1 [Example 478, 1-[(3,3-dimethylcyclobutyl)methyl]-N-(1-methylcyclopropyl)-3-[(2-methylthiazol-5-yl)methyl]-2,4-dioxo-quinazoline-6-sulfonamide]	121	–	–	IC50 ([2]; read-out: PARG Biochem IC50): 109 nM
Cn1cc(Cn2c(=O)c3cc(S(=O)(=O)NC4(C)CC4)ccc3n(CC3(F)COC3)c2=O)cn1 [Example 348]	–	328	101	–
Cc1cc(Cn2c(=O)c3cc(S(=O)(=O)NC4(CF)CC4)ccc3n(Cc3cocn3)c2=O)on1 [Example 559, N-[1-(Fluoromethyl)cyclopropyl]-3-[(3-methylisoxazol-5-yl)methyl]-1-(oxazol-4-ylmethyl)-2,4-dioxo-quinazoline-6-sulfonamide]	60	–	–	IC50 ([2]; read-out: PARG Biochem IC50): 85 nM
Cn1cc(Cn2c(=O)c3cc(S(=O)(=O)NC4(CF)CC4)ccc3n(Cc3nncs3)c2=O)cn1 [Example 589, N-[1-(Fluoromethyl)cyclopropyl]-3-[(1-methylpyrazol-4-yl)methyl]-2,4-dioxo-1-(1,3,4-thiadiazol-2-ylmethyl)quinazoline-6-sulfonamide]	187	–	–	IC50 ([2]; read-out: PARG Biochem IC50): 55 nM
CC(C)Cn1c(=O)n(Cc2cnn(C)c2)c(=O)c2cc(S(=O)(=O)NC3(C)CC3)ccc21 [Example 295]	–	85	70	–
Cc1cc(Cn2c(=O)n(Cc3nnc(C)s3)c(=O)c3cc(S(=O)(=O)NC4(CF)CC4)ccc32)n(C)n1 [Example 603, 1-[(2,5-Dimethylpyrazol-3-yl)methyl]-N-[1-(fluoromethyl)cyclopropyl]-3-[(5-methyl-1,3,4-thiadiazol-2-yl)methyl]-2,4-dioxo-quinazoline-6-sulfonamide]	496	–	–	–

Compound	IC50 [1, 3] [nM]	IC50 [1, 4] [nM]	IC50 [2, 5] [nM]	other results
Cn1c(=O)c2cc(S(=O)(=O)NC3(C)CC3)ccc2n(CC2CC2(F)F)c1=O (stereo not drawn) [Example 36]	–	591	–	–
Cc1cc(Cn2c(=O)c3cc(S(=O)(=O)NC4(C)CC4)ccc3n(CC3CC(C)(C)O3)c2=O)on1 (stereo not drawn) [Example 352]	–	608	–	–
Cc1cc(Cn2c(=O)c3cc(S(=O)(=O)NC4(CF)CC4)ccc3n(CCF)c2=O)on1 [Example 526, 1-(2-Fluoroethyl)-N-[1-(fluoromethyl)cyclopropyl]-3-[(3-methylisoxazol-5-yl)methyl]-2,4-dioxo-quinazoline-6-sulfonamide]	133	–	–	–
Cn1c(=O)n(Cc2ccno2)c(=O)c2cc(S(=O)(=O)NC3(CF)CC3)ccc21 [Example 513, N-[1-(Fluoromethyl)cyclopropyl]-3-(isoxazol-5-ylmethyl)-1-methyl-2,4-dioxo-quinazoline-6-sulfonamide]	534	–	–	–
Cn1cc(Cn2c(=O)[nH]c3ccc(S(=O)(=O)NC4(C)CC4)cc3c2=O)cn1 [Example 430, N-(1-Methylcyclopropyl)-3-[(1-methylpyrazol-4-yl)methyl]-2,4-dioxo-1H-quinazoline-6-sulfonamide]	1080	–	–	–
Cn1cc(Cn2c(=O)c3cc(S(=O)(=O)NC4(C)CC4)ccc3n(CC3CN(C(=O)OC(C)(C)C)C3)c2=O)cn1 [Example 365]	–	218	–	–
Cn1cc(Cn2c(=O)c3cc(S(=O)(=O)NC4(C)CC4)ccc3n(CC3CC3)c2=O)cn1 [Example 174]	–	56	–	–
1-[(2,5-Dimethylpyrazol-3-yl)methyl]-3-[(1-methylpyrazol-4-yl)methyl]-2,4-dioxo-N-[1-(trideuteriomethyl)cyclopropyl]quinazoline-6-sulfonamide [Example 490]	–	–	–	IC50 ([1]; MMS treatment, read-out: PARG Cell IC50): 70 nM
Cn1c(=O)c2cc(S(=O)(=O)NC3(C)CC3)ccc2n(CC2CC2)c1=O [Example 23]	–	519	–	–
Cc1cc(Cn2cc(C#CCN(C)C)c3ccc(S(=O)(=O)NC4(C)CC4)cc3c2=O)on1 [Example 286, 4-[3-(Dimethylamino)prop-1-ynyl]-N-(1-methylcyclopropyl)-2-[(3-methylisoxazol-5-yl)methyl]-1-oxo-isoquinoline-7-sulfonamide]	–	–	842	–
CC(C)n1cc(Cn2c(=O)c3cc(S(=O)(=O)NC4(C)CC4)ccc3n(C)c2=O)cn1 [Example 507, 3-[(1-Isopropylpyrazol-4-yl)methyl]-1-methyl-N-(1-methylcyclopropyl)-2,4-dioxo-quinazoline-6-sulfonamide]	–	–	–	IC50 ([2]; read-out: PARG Biochem IC50): 4130 nM
Cn1c(=O)c2cc(S(=O)(=O)NC3(C)CC3)ccc2n(CC(=O)Nc2ccccc2)c1=O [Example 92]	–	–	4130	–
Cn1c(=O)c2cc(S(=O)(=O)NC3(C)CC3)ccc2n(CC2CCCCO2)c1=O (stereo not drawn) [Example 38]	–	–	1550	–
Cc1cc(Cn2nc(C(=O)NCC3CCOCC3)c3ccc(S(=O)(=O)NC4(C)CC4)cc3c2=O)on1 [Example 331]	–	–	795	–
CCn1c(=O)c2cc(S(=O)(=O)NC3(C#N)CC3)ccc2n(CC)c1=O [Example 5]	–	–	1820	–
Cc1cc2cc(S(=O)(=O)NC3(C)CC3)ccc2n(CC2CC2)c1=O [Example 426, 1-(Cyclopropylmethyl)-3-methyl-N-(1-methylcyclopropyl)-2-oxo-quinoline-6-sulfonamide]	1400	–	–	–
Cn1c(=O)n(CC#N)c(=O)c2cc(S(=O)(=O)NC3(C)CC3)ccc21 [Example 31]	–	–	1140	–
Cc1cc(COc2nc3ccc(S(=O)(=O)NC4(C)CC4)cc3c(=O)n2Cc2c(C)noc2C)n(C)n1 [Example 167]	–	–	700	–
CN1CCCC(Cn2c(=O)n(Cc3cnn(C)c3)c(=O)c3cc(S(=O)(=O)NC4(C)CC4)ccc32)C1 (stereo not drawn) [Example 236]	–	–	6740	–
Cn1c(=O)c2cc(S(=O)(=O)NC3(C)CC3)ccc2n(Cc2noc(C(N)=O)n2)c1=O [Example 95]	–	–	758	–
